Each compound was assayed on tryptase purified from human lung or skin tissue preparations or human mast cell line (HMC-1) (assay: In vitro Tryptase Inhibition Assay). Settings: substrate tosyl-Gly-Pro-Lys-p-nitroanilide; Tris-HCl pH 8.2; zinc chloride 150 μM; 1 hour preincubation at room temperature; read-out: Ki (apparent inhibition constant, tryptase inhibitory activity).
Type: biochemical
Procedure: Tryptase solution ([…]) was prepared by dissolving tryptase purified from human lung or skin tissue preparations or human mast cell line (HMC-1) or obtained from commercial sources, e.g., ICN Biomeidals, Irvine, Calif., Athens Research & Technology, Athens, Ga., etc., in a solvent mixture comprising: 10 mM 2-N-morpholinoethane sulfonic acid, 2 mM CaCl2, 20% glycerol and 50 µg/mL heparin. Substrate solution containing 2 mM synthetic tripeptide (tosyl-Gly-Pro-Lys-p-nitroanilide) was obtained from Sigma. Test Compound solutions were prepared by diluting a stock solution (1 mg of test Compound in 200 μL of dimethylsulfoxide (DMSO)) by ten-fold into assay buffer (comprising: Tris-HCl (pH 8.2), 50 mM; NaCl, 100 MM; 0.05% polyoxyethylenesorbitan monolaurate (Tween-20®); and zinc chloride, 150 μM) and then making seven additional three-fold dilutions into 10% DMSO in assay buffer.
Aliquots (50 μL) from each of the eight dilutions of test compound solution were added to separate wells in a 96-well U-bottom microtiter plate. Typtase solution (25 μL) was added to each well and the solutions were mixed 1 hour at room temperature. Substrate solution (25 μL) was added to initiate the enzymatic reaction and the microtiter plates were immediately transferred to a UVIMAX Kinetic Microplate Reader (Molecular Devices). The hydrolysis of the chromogenic substrate was followed spectrophotometrically at 405 nanometers for five minutes. Initial velocity measurements were calculated from the progress curves by kinetic analysis program (BatchKi; Petr Kuzmic, University of Wisconsin, Madison, Wis.). Apparent inhibition constants (K) were calculated from the enzyme progress curves using standard mathematical models.

SMILES | Ki [nM]
CC(=N)N1CCc2[nH]c(C(C)c3nc4ccc(C(=O)NCCc5cccc6ccccc56)cc4n3C)nc2C1 (stereo not drawn) [Compound 169, 2-{1-[5-(1-iminoethyl)-4,5,6,7-tetrahydro-1H-imidazo[4,5-c]pyridin-2-yl]ethyl}-3-methyl-N-(2-naphth-1-ylethyl)-3H-benzoimidazole-5-carboxamide] | 1
CCOC(=O)c1ccccc1OCCNC(=O)c1ccc2nc(C(C)c3nc4c([nH]3)CCN(C(C)=N)C4)n(C)c2c1 (stereo not drawn) [Compound 182, ethyl 2-[2-(2-{1-[5-(1-iminoethyl)-4,5,6,7-tetrahydro-1H-imidazo[4,5-c]pyridin-2-yl]ethyl}-3-methyl-3H-benzoimidazol-5-ylcarbonylamino)ethoxy]benzoate] | 4
COCCn1c(C(C)c2nc3c([nH]2)CCN(C(C)=N)C3)nc2ccc(C(=O)NCCOc3ccccc3C(=O)O)cc21 (stereo not drawn) [Compound 194, 2-[2-(2-{1-[5-(1-iminoethyl)-4,5,6,7-tetrahydro-1H-imidazo [4,5-c]pyridin-2-yl]ethyl)-3-(2-methoxyethyl)-3H-benzoimidazol-5-ylcarbonylamino)ethoxy]benzoic acid] | 9
CCOC(=O)c1ccccc1OCCNC(=O)N1CCc2[nH]c(C(C)c3nc4c([nH]3)CCN(C(C)=N)C4)nc2C1 (stereo not drawn) [Compound 203, ethyl 2-[2-(2-{1-[5-(1-iminoethyl)-4,5,6,7-tetrahydro-1H-imidazo[4,5-c]pyridin-2-yl]ethyl}-1,4,6,7-tetrahydroimidazo[4,5-c]pyridin-5-ylcarbonylamino)ethoxy]benzoate] | 8
CC(=N)N1CCc2[nH]c(C(C)c3nc4ccc(C(=O)NCCOc5ccccc5-c5nnn[nH]5)cc4n3C)nc2C1 (stereo not drawn) [Compound 225, 2-{1-[5-(1-iminoethyl)-4,5,6,7-tetrahydro-1H-imidazo[4,5-c]pyridin-2-yl]ethyl}-3-methyl-N-[2-(2-tetrazolylphenoxy)ethyl]-3H-benzoimidazole-5-carboxamide] | 8
CC(c1nc2cc(NC(=N)N)ccc2[nH]1)c1nc2ccc(C(=O)NCCOc3ccccc3C(N)=O)cc2n1C (stereo not drawn) [Compound 249, 2-[1-(5-guanidino-1H-benzoimidazol-2-yl)ethyl]-N-[2-(2-carbamoylphenoxy)ethyl]-3-methyl-3H-benzoimidazole-5-carboxamide] | 0.7
CC(c1nc2cc(NC(=N)N)ccc2[nH]1)c1nc2ccc(C(=O)NCCOc3ccc(Cl)cc3C(N)=O)cc2n1C (stereo not drawn) [Compound 250, 2-[1-(5-guanidino-1H-benzoimidazol-2-yl)ethyl]-N-[2-(2-carbamoyl-4-chlorophenoxy)ethyl]-3-methyl-3H-benzoimidazole-5-carboxamide] | 0.4
CC(c1nc2cc(NC(=N)N)ccc2[nH]1)c1nc2ccc(C(=O)NCCOc3cc(Cl)ccc3C(=O)O)cc2n1C (stereo not drawn) [Compound 251, 4-chloro-2-(2-{2-[1-(5-guanidino-1H-benzoimidazol-2-yl)ethyl]-3-methyl-3H-benzoimidazol-5-ylcarbonylamino}ethoxy)benzoic acid] | 0.8
CC(c1nc2cc(NC(=N)N)ccc2[nH]1)c1nc2ccc(C(=O)NCCOc3ccc(Cl)cc3C(=O)O)cc2n1C (stereo not drawn) [Compound 252, 5-chloro-2-(2-{2-[1-(5-guanidino-1H-benzoimidazol-2-yl)ethyl]-3-methyl-3H-benzoimidazol-5-ylcarbonylamino}ethoxy)benzoic acid] | 0.4

Each compound was assayed on antigen challenged sheep (assay: Sheep Model of Asthma (allergic sheep, antigen challenge)). Settings: 24 hours after antigen challenge; 1 mg aerosol 0.5 hours before, 4 hours after and 24 hours after challenge; n=3; baseline 15, control group fell to 7.
Type: in vivo
Description: The allergic sheep model of asthma was employed for the in vivo evaluation of the compounds of the invention as antiasthmatics. These methods have been published previously (see Abraham et al. (1983) Am. Rev. Respir. Dis. 128:839-844; Allegra et al. (1983) J. Appl. Physiol. 55:726-730; Russi et al. (1985) J. Appl. Physiol. 59:1416-1422; Soler et al. ((1989) J. Appl. Physiol. 67:406-413. Each sheep serves as its own control. Body weights for these animals ranged from 20-50 kilograms.
In these studies, 1 mg of Compound 13 was dissolved in 3 mL distilled water, and the total solution delivered as an aerosol 0.5 hours before, 4 hours after, and 24 hours after antigen challenge (total dose=1 mg; n=3).
Twenty-four hours after antigen challenge in both the control and drug trial, the sheep developed airway hyper-responsiveness. Airway hyper-responsiveness is expressed as PC400, the concentration of carbachol that causes a 400% increase in SRL; therefore, a decrease in PC400 indicates hyper-responsiveness. […] The number of breath units fell to 7 for those animals in the control group.

SMILES | PC400 (airway hyper-responsiveness; concentration of carbachol that causes a 400% increase in SRL) [breath units]
NCc1ccc2[nH]c(Cc3nc4cc(C(=O)NCCc5cccc6ccccc56)ccc4[nH]3)nc2c1 [Compound 13] | ~15

Same assay, conditions: antigen challenged sheep, aerosol treatment

SMILES | airway function
NCc1ccc2[nH]c(Cc3nc4cc(C(=O)NCCc5cccc6ccccc56)ccc4[nH]3)nc2c1 [Compound 13] | significant improvement in airway function

Same assay, conditions: antigen challenged sheep, aerosol, 24 hours after challenge

SMILES | onset of airway hyper-responsiveness
NCc1ccc2[nH]c(Cc3nc4cc(C(=O)NCCc5cccc6ccccc56)ccc4[nH]3)nc2c1 [Compound 13] | block the onset of hyper-responsiveness
